Results as given in patent publication US10258629B2, “Liposomal drug encapsulation” (priority 2014, dated 2019).

Key:
[1] = 0.8 mg/Kg injected as free staurosporine; 'would very likely be'; cited from earlier work
[2] = Acute toxicity of free staurosporine; conditions: 5 mg/Kg free staurosporine
[3] = tested on: U87 cells; test: In vivo anti-tumor activity against very large U87 flank tumors (FIG. 9); conditions: treatment over two weeks
[4] = Reverse pH gradient encapsulation efficiency of staurosporine in liposomes

For `CN[C@@H]1C[C@H]2O[C@@](C)([C@@H]1OC)n1c3ccccc3c3c4c(c5c6ccccc6n2c5c31)C(=O)NC4` [free staurosporine, (9S, 10R, 11R, 13R)-2,3,10,11,12,13-Hexahydro-10-methoxy-9-methyl-11-(methylamino)-9,13-epoxy-1H,9H-diindolo[1,2,3-gh:3′,2′r-lm]pyrrolo[3,4-j][1,7]benzodiazonin-1-one], the “Fraction cleared after only one circulatory pass” value [1] is given as 99%, the Acute lethality [2] is given as “acutely lethal” and the Body weight [3] is given as “body weight did decline”. The Tumor growth ([3]; tumors 180-200 mm^3 at start, relative to PBS, p<0.004 for liposomal) was “no demonstrable effect”, the “Increase of encapsulation when a pH gradient existed” value ([4]; internal buffer pH 7.4 versus pH 3, external buffer constant at pH 3) was 14 fold and the Encapsulation rate ([4]; internal pH 5, external pH 7.4) was “very low encapsulation rates”. For the same molecule, the “Liposomal loading capacity, peak value” ([4]; lipid to drug ratio 11.11 (mole/mole)) was 70%.
